In general, IC50 refers to the midpoint of a concentration-inhibition curve.

Experimental findings from patent US8633183B2 (priority 2010, dated 2014) are described below.

PI3Kalpha, sequence (P42336 whole entry, looked up): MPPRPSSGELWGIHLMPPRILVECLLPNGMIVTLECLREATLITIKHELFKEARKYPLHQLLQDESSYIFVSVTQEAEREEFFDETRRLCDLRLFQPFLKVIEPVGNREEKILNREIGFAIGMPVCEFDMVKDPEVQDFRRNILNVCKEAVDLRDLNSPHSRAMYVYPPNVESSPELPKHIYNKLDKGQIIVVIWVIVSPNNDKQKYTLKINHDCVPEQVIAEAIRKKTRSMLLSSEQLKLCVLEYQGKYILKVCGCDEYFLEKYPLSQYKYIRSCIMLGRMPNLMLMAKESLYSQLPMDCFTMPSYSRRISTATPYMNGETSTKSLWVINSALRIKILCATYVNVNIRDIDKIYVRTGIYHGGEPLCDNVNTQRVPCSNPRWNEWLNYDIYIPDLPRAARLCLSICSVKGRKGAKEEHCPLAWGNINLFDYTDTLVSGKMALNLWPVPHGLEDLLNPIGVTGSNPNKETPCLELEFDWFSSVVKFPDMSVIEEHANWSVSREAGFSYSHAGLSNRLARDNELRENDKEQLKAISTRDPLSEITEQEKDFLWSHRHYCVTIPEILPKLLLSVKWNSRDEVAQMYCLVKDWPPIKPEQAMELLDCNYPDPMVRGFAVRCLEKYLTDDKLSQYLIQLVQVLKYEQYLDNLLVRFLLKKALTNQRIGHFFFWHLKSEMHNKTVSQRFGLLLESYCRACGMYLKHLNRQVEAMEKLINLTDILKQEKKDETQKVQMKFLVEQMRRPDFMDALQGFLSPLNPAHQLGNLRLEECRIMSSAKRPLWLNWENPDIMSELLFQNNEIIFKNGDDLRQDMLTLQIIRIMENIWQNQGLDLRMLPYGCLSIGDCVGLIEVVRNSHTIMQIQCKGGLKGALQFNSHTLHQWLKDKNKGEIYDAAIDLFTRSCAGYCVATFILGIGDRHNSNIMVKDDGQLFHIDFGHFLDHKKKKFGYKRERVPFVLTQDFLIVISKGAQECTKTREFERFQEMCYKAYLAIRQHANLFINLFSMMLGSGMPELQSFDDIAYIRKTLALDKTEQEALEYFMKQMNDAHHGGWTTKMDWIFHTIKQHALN

The assay has as its target PI3Kalpha (Homo sapiens (Human), UniProt P42336). The settings on record: read-out: IC50 PI3K.
Regarding `CCc1ncnc(-c2ccc(C(=O)N3CCC(N4CCCCCC4)CC3)c(OC)c2)c1C#Cc1ccc(N)nc1` [Example E-58], the half-inhibitory concentration (IC50) amounted to 253 nM. Take `CCc1ncnc(-c2ccc(C(=O)NCC3(C)COC3)c(Cl)c2)c1C#Cc1ccc(N)nc1` [Example D-159]: the IC50 amounted to 66 nM. Turning to `CCc1ncnc(-c2ccc(C(=O)N3CCC(N4CCC(C)CC4)C3)c(OC)c2)c1C#Cc1ccc(N)nc1` (stereo not drawn) [Example E-52], the IC50 came to 578 nM. `CCc1ncnc(-c2ccc(C(=O)N(C)CC3CCCN(C)C3)c(F)c2)c1C#Cc1ccc(N)nc1` [Example D-73]: the IC50 was determined as 324 nM. Next, `CCc1ncnc(-c2ccc(C(=O)N3CCC[C@H]3CO)c(F)c2)c1C#Cc1ccc(N)nc1` [Example D-135]: 136 nM. Consider `CCc1ncnc(-c2ccc(C(=O)N(C)CCCO)c(F)c2)c1C#Cc1ccc(N)nc1` [Example D-4], for which the IC50 came to 58 nM.

On to `CCc1ncnc(-c2cc(Cl)c(C(=O)N3CCN(CC)CC3)c(Cl)c2)c1C#Cc1ccc(N)nc1` [Example E-198], for which the IC50 is 90.9 nM. To `CCc1ncnc(-c2cc(F)c(C(=O)N3CCC(N4CCOCC4)CC3)c(F)c2)c1C#Cc1ccc(N)nc1` [Example E-9] belongs 199 nM; to `CCc1ncnc(-c2ccc(C(=O)N3CCN(c4ccncc4)CC3)c(Cl)c2)c1C#Cc1ccc(N)nc1` [Example E-37], 209 nM; to `CCc1ncnc(-c2ccc(C(=O)N3CCN(CC4CCCO4)CC3)c(F)c2)c1C#Cc1ccc(N)nc1C` [Example D-16], 192 nM. In the case of `CCc1ncnc(-c2ccc(C(=O)NC3CCN(C)CC3)c(F)c2)c1C#Cc1ccc(N)nc1` [Example D-65], the IC50 amounted to 436 nM.

Take `CCc1ncnc(-c2ccc(C(=O)N3CCOCC3)c(OC)c2)c1C#Cc1ccc(N)nc1` [Example E-48]: the IC50 was 100 nM. Turning to `CCc1ncnc(-c2ccc(C(=O)N3CCN(CC(=O)N(C)C)CC3)c(F)c2)c1C#Cc1ccc(N)nc1C` [Example D-23], the IC50 stood at 123 nM. To `CCc1ncnc(-c2cc(F)c(C(=O)N3CCn4ccnc4C3)c(F)c2)c1C#Cc1ccc(N)nc1` [Example E-147] belongs 55.7 nM; to `CCc1ncnc(-c2ccc(C(=O)NCC3CCNCC3)c(F)c2)c1C#Cc1ccc(N)nc1` [Example E-168], 373 nM; to `CCc1ncnc(-c2ccc(C(=O)N3CCCCO3)c(F)c2)c1C#Cc1ccc(N)nc1` [Example D-219], 105 nM. As to `CCOC(=O)N1CCN(C(=O)c2ccc(-c3ncnc(CC)c3C#Cc3ccc(N)nc3)cc2Cl)CC1` [Example E-82], the IC50 was found to be 81.7 nM. `CCc1ncnc(-c2ccc(C(=O)N3CCC(OC)CC3)c(Cl)c2)c1C#Cc1ccc(N)nc1` [Example E-24]: the IC50 worked out at 93.5 nM. As for `CCc1ncnc(-c2cc(F)c(C(=O)N3CCN4CCC[C@H]4C3)c(F)c2)c1C#Cc1ccc(NC)nc1` [Example E-207], the IC50 is 581 nM. To `CCc1ncnc(-c2ccc(C(=O)N3CCN(S(=O)(=O)CC)CC3)c(Cl)c2)c1C#Cc1ccc(N)nc1` [Example E-81] belongs 39.5 nM; to `CCc1ncnc(-c2cc(F)c(C(=O)N3CC[C@@H](N(C)C)C3)c(F)c2)c1C#Cc1ccc(NC)nc1` [Example E-209], 546 nM. To `CCc1ncnc(-c2ccc(C(=O)N3CC[C@H](O)C3)c(F)c2)c1C#Cc1ccc(N)nc1` [Example D-203] belongs 57 nM; to `Cc1ncnc(-c2ccc(C(=O)N3CCCO3)c(Cl)c2)c1C#Cc1ccc(N)nc1` [Example D-230], 37 nM; to `CCc1ncnc(-c2ccc(C(=O)N3CCC(O)CC3)c(C)c2)c1C#Cc1ccc(N)nc1` [Example E-132], 45.5 nM. For `CCc1ncnc(-c2ccc(C(=O)N(C)OC)cc2)c1C#Cc1ccc(N)nc1` [Example D-225], the IC50 is 66 nM. With `CCc1ncnc(-c2ccc(C(=O)N3CCN(C(C)CO)CC3)c(F)c2)c1C#Cc1ccc(N)nc1` (stereo not drawn) [Example E-292], the IC50 was 212 nM. In the case of `CCc1ncnc(-c2ccc(C(=O)N3CCC4(CC3)OCCCO4)c(C)c2)c1C#Cc1ccc(N)nc1` [Example E-117], the IC50 stood at 73.5 nM. To `CCc1ncnc(-c2ccnc(C)c2)c1C#Cc1ccc(N)nc1` [Example C-27] belongs 57 nM; to `CCc1ncnc(-c2ccc(C(=O)N3CCN(C(C)=O)CC3)c(OC)c2)c1C#Cc1ccc(N)nc1` [Example D-56], 73 nM.

Turning to `CCCCN1CCN(C(=O)c2ccc(-c3ncnc(CC)c3C#Cc3ccc(N)nc3)cc2OC)CC1` [Example E-43], the IC50 stood at 502 nM. `CCc1ncnc(-c2ccc(C(=O)N3CCN(c4ccncc4)CC3)c(Cl)c2)c1C#Cc1ccc(N)nc1` [Example D-155]: the IC50 is 209 nM.

With `CCc1ncnc(-c2ccc(C(=O)N3CCC4(CC3)CC(NC(=O)OC(C)(C)C)C4)c(F)c2)c1C#Cc1ccc(N)nc1` [Example E-319], the IC50 is 360 nM. For the compound `CCNc1ccc(C#Cc2c(CC)ncnc2-c2ccc(C(=O)N3CC4(CN(C(=O)OC(C)(C)C)C4)C3)c(F)c2)cn1` [Example E-267], the IC50 was determined as 421 nM. As for `CCc1ncnc(-c2ccc(C(=O)N3CCN(C)CC3)c(C(F)(F)F)c2)c1C#Cc1ccc(N)nc1` [Example E-229], the IC50 amounted to 174 nM. On to `CCc1ncnc(-c2ccc(C(=O)N3CC[C@H](N(C)C)C3)c(F)c2)c1C#Cc1ccc(NC)nc1` [Example E-181], for which the IC50 came out at 275 nM. Next, `Cc1ncnc(-c2ccc(C(=O)N3CCN(c4ccccc4)CC3)cc2)c1C#Cc1ccc(N)nc1` [Example D-188]: 67 nM; `CCc1ncnc(-c2cc(F)c(C(=O)N3CCN(CC(C)(C)O)CC3)c(Cl)c2)c1C#Cc1ccc(N)nc1` [Example E-240]: 115 nM. To `CCc1ncnc(-c2ccc(C(=O)N(C)C3CCN(C)CC3)c(F)c2)c1C#Cc1ccc(N)nc1` [Example D-3] belongs 574 nM. Take `CCc1ncnc(-c2ccc(C(=O)N3CCN(c4ccncc4)CC3)c(F)c2)c1C#Cc1ccc(N)nc1` [Example D-93]: the IC50 worked out at 266 nM. In the case of `CCc1ncnc(-c2ccc(C(=O)N3CCN(C)CC3)c(OC(F)(F)F)c2)c1C#Cc1ccc(N)nc1` [Example E-225], the IC50 was 224 nM. To `CCc1ncnc(-c2ccc(C(=O)N3CCN(CCNS(C)(=O)=O)CC3)c(Cl)c2)c1C#Cc1ccc(N)nc1` [Example E-253] belongs 30.6 nM; to `CCc1ncnc(-c2cc(F)c(C(=O)N3CCC(C(C)O)CC3)c(F)c2)c1C#Cc1ccc(NC)nc1` (stereo not drawn) [Example E-213], 465 nM; to `CCc1ncnc(-c2ccc(C(=O)N3CCN(S(=O)(=O)CC)CC3)c(OC)c2)c1C#Cc1ccc(N)nc1` [Example D-55], 36 nM. Regarding `CCc1ncnc(-c2ccc(C(=O)N3CCC(O)(C(C)C)CC3)c(F)c2)c1C#Cc1ccc(N)nc1` [Example D-124], the IC50 was 228 nM. Consider `CCc1ncnc(-c2ccc(C(=O)N3CCN(C(CC)CC)CC3)c(F)c2)c1C#Cc1ccc(N)nc1` [Example D-130], for which the IC50 is 384 nM. As to `CCc1ncnc(-c2ccc(C(=O)N3CCN(C(C)=O)CC3)c(Cl)c2)c1C#Cc1ccc(N)nc1` [Example D-46], the IC50 amounted to 97 nM. To `CCc1ncnc(-c2ccc(C(=O)N3CC[C@@H](N(C)C)C3)c(OC(F)(F)F)c2)c1C#Cc1ccc(N)nc1` [Example E-224] belongs 402 nM. Consider `CCc1ncnc(-c2ccc(C(=O)N3CCCO3)c(Cl)c2)c1C#Cc1ccc(N)nc1` [Example E-74], for which the IC50 stood at 53.9 nM.
